Data from patent US20060269605A1, “Multilayer pharmaceutical dosage form containing a substance that acts in a modulatory manner with regard to the release of active substances” (Roehm Gmbh & Co. KG, priority 2003, published 2006).

Test: active ingredient delivery in PhEur phosphate buffer of pH 6.8 in a USP dissolution tester
Format: physicochemical
Conditions: modulator as core of theophylline pellets coated with EUDRAGIT RS, no inner controlling layer, versus microcrystalline cellulose core (Example 5)

Structure (SMILES) | effect of the substance having a modulating effect on active ingredient delivery
O=C(O)CC(O)(CC(=O)O)C(=O)O [citric acid] | accelerating effect
CC(=O)[O-].[Na+] [sodium acetate] | accelerating effect
[Cl-].[Na+] [sodium chloride] | reducing effect
O=C([O-])CCC(=O)[O-].[Na+].[Na+] [sodium succinate] | accelerating effect
